Key:
[1] = biological target: T1, BRD4 bromo domain 2 [BRD4(2)] (Homo sapiens, UniProt O60885); test: BRD4(2)/acetylated peptide H4 TR-FRET binding assay; conditions: His6-BRD4(2) (aa 357-445) vs acetylated histone H4 peptide
T1 construct: N-terminally His6-tagged BRD4(2) (amino acids 357-445); made in house; host or cells: E. coli
Summary of the method: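 His6-BRD4(2) (aa 357-445, E. coli-expressed, 100 nM) pre-incubated 10 min with compound (11 concentrations, 0.1 nM-20 μM, duplicates), then with biotinylated tetra-acetylated H4 peptide in HEPES pH 7.5 buffer, 1 h at 22 °C plus 3 h to overnight at 4 °C. TR-FRET 665/620 ratio; IC50 from 4-parameter fit.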

B16F10 cells = test: Cell proliferation assay B16F10 (alamarBlue); format: cell-based; conditions: Mus musculus, B16-F10, melanoma (BRAF wild-type) cells, 96 hours
Method: (§1) In accordance with the invention, the ability of the substances to inhibit cell proliferation was determined. Cell viability was determined by means of the alamarBlue® reagent (Invitrogen) in a Victor X3 Multilabel Reader (Perkin Elmer). The excitation wavelength was 530 nm and the emission wavelength […].
The B16F10 cells (ATCC, CRL-6475) were seeded at a concentration of 300-500 cells/well in 100 μl of growth medium (DMEM with phenol red, 10% FCS) on 96-well microtitre plates.
(§2) After overnight incubation at 37° C., the fluorescence values (CI values) were determined. Then the plates were treated with various substance dilutions (1E-5 M, 3E-6 M, 1E-6 M, 3E-7 M, 1E-7 M, 3E-8 M, 1E-8 M) and incubated at 37° C. over 96 hours (MOLM-13, B16F10, CHL-1 cells) or 120 hours (MOLP-8 cells). Subsequently, the fluorescence values were determined (CO values). For the data analysis, the CI values were subtracted from the CO values and the results were compared between cells which had been treated with various dilutions of the substance or only with buffer solution. The IC50 values (substance concentration needed for 50% inhibition of cell proliferation) were calculated therefrom.
(§3) The substances were tested in the cell lines in Table 2, which represent the indications specified by way of example: […]

MOLM-13 cells = test: Cell proliferation assay MOLM-13, method 1 (alamarBlue); format: cell-based; conditions: Homo sapiens, acute myeloid leukaemia cells, 4000 cells/well, 96-well, 96 hours
Method: as §1
The MOLM-13 cells (DSMZ, ACC 554) were seeded at a concentration of 4000 cells/well in 100 μl of growth medium (RPMI1640, 10% FCS) on 96-well microtitre plates (method 1).
as §2, §3

CHL-1 cells = test: Cell proliferation assay CHL-1 (alamarBlue); format: cell-based; conditions: Homo sapiens, melanoma (BRAF wild-type) cells, 96 hours
Method: as §1
The CHL-1 cells (ATCC, CRL-9446) were seeded at a concentration of 1000 cells/well in 100 μl of growth medium (DMEM with glutamine, 10% FCS) on 96-well microtitre plates.
as §2, §3

SMILES: COc1ccc(S(=O)(=O)C(C)C)cc1Nc1ccc2c(n1)N(C1CCOCC1)[C@H](C)C(=O)N2C [Example 9, (3R)-6-{[5-(Isopropylsulphonyl)-2-methoxyphenyl]amino}-1,3-dimethyl-4-(tetrahydro-2H-pyran-4-yl)-3,4-dihydropyrido[2,3-b]pyrazin-2(1H)-one]
- IC50 [1]: 53 nM
- IC50 (B16F10 cells): 34 nM
- IC50 (MOLM-13 cells): 42 nM
- IC50 (CHL-1 cells): 19 nM

SMILES: COc1ccc(S(=O)(=O)C2CC2)cc1Nc1ccc2c(n1)N(C(C)C)[C@H](C)C(=O)N2C [Example 15, (3R)-6-{[5-(Cyclopropylsulphonyl)-2-methoxyphenyl]amino}-4-isopropyl-1,3-dimethyl-3,4-dihydropyrido[2,3-b]pyrazin-2(1H)-one]
- IC50 [1]: 49 nM
- IC50 (B16F10 cells): 132 nM
- IC50 (MOLM-13 cells): 149 nM
- IC50 (CHL-1 cells): 52 nM

SMILES: CC(C)S(=O)(=O)c1cccc(Nc2ccc3c(n2)N(C2CCN(C)CC2)[C@H](C)C(=O)N3C)c1 [Example 19, (3R)-6-{[3-(Isopropylsulphonyl)phenyl]amino}-1,3-dimethyl-4-(1-methylpiperidin-4-yl)-3,4-dihydropyrido[2,3-b]pyrazin-2(1H)-one]
- IC50 [1]: 47 nM
- IC50 (B16F10 cells): 45 nM
- IC50 (MOLM-13 cells): 13 nM
- IC50 (CHL-1 cells): 17 nM

— US20170121322A1, “BET-PROTEIN INHIBITING 3,4-DIHYDROPYRIDO[2,3-B]PYRAZINONES WITH META-SUBSTITUTED AROMATIC AMINO- OR ETHER GROUPS” (Bayer Pharma Aktiengesellschaft, priority 2014, published 2017)
